{"source": "patent US20030195183A1", "about": "“Method for correcting immune system of live body” (priority 2000, published 2003)", "key": {"[1]": {"system": "humoral immune response to ram erythrocytes", "test": "titers of hemagglutinins after simultaneous administration of preparation and RE (inductive phase)", "assay_type": "in vivo, mice"}, "[2]": {"test": "clinical case, treatment of duodenal ulcer", "assay_type": "in vivo, human", "conditions": "Patient K", "description": "Apart from the studies on animals described above, clinical studies of immunocorrection activity of amino derivatives of 2,3-dihydrophthalazine-1,4-dione represented by sodium salt of 5-amino-2,3-dihydrophthalazine-1,4-dione in the treatment of various diseases on human, in particular, anti-inflammatory immunocorrecting activity in the treatment of ulcers, were carried out.\nConcomitant catarrhal bulbitis was present. The patient partly lost their working capacity due to this disease.\nTreatment: Periulceral injection of 100 mg of sodium salt of 5-amino-2,3-dihydrophthalazine-1,4-dione was made. One more injection of the preparation was made on the 7th day. The patient also received the preparation in Almagel suspension and, since the 7th day, in Maalox (in view of constipations). They were simultaneously treated with omeprazol in accordance with usual regimen and, since the 7th day, De-nol with trichopol."}, "[3]": {"system": "humoral immune response to ram erythrocytes", "test": "titers of hemagglutinins, preparation five days after immunization with RE (productive phase)", "assay_type": "in vivo, mice"}, "[4]": {"test": "anaphylactogenic activity", "assay_type": "in vivo, guinea pigs", "description": "Allergenic effects of the preparation were evaluated on female guinea pigs weighing 250 to 300 g supplied by RF AMS Central Brooder of Laboratory Animals. A total of 70 guinea pigs have been studied. Intraperitoneal and intradermal injections of the preparations were used.\nThe preparation under study was injected to three groups of guinea pigs in accordance with the following schedule: first 0.1-ml injection of various doses (1 μg, 10 μg and 100 μg) was made subcutaneously; second 0.1-ml injection of the preparation was made on the next day intramuscularly in the thigh; and the third 0.1-ml injection was made one day later. On day 21, the shocking injection of main pharmacological effect with single application was made."}, "[5]": {"conditions": "0.2 μg, Strain C57BL6 mice, 7 days"}, "[6]": {"conditions": "0.2 μg, Strain C57BL6 mice, 14 days"}, "[7]": {"conditions": "0.2 μg, Strain C57BL6 mice, 21 days"}, "[8]": {"conditions": "0.2 μg, Strain CBA mice, 7 days"}, "[9]": {"conditions": "0.2 μg, Strain CBA mice, 14 days"}, "[10]": {"conditions": "0.2 μg, Strain CBA mice, 21 days"}, "[11]": {"conditions": "2 μg, Strain C57BL6 mice, 7 days"}, "[12]": {"conditions": "2 μg, Strain C57BL6 mice, 14 days"}, "[13]": {"conditions": "2 μg, Strain C57BL6 mice, 21 days"}, "[14]": {"conditions": "20 μg, Strain C57BL6 mice, 7 days"}, "[15]": {"conditions": "20 μg, Strain C57BL6 mice, 14 days"}, "[16]": {"conditions": "20 μg, Strain C57BL6 mice, 21 days"}, "[17]": {"conditions": "20 μg, Strain CBA mice, 14 days"}, "[18]": {"conditions": "20 μg, Strain CBA mice, 21 days"}, "[19]": {"conditions": "200 μg, Strain C57BL6 mice, 7 days"}, "[20]": {"conditions": "200 μg, Strain C57BL6 mice, 14 days"}, "[21]": {"conditions": "200 μg, Strain C57BL6 mice, 21 days"}, "[22]": {"conditions": "200 μg, Strain CBA mice, 7 days"}, "[23]": {"conditions": "200 μg, Strain CBA mice, 14 days"}, "[24]": {"conditions": "200 μg, Strain CBA mice, 21 days"}, "[25]": {"conditions": "sensitization 10 μg, shocking injection 100 μg, 10 animals"}, "[26]": {"conditions": "sensitization 100 μg, shocking injection 100 μg, 10 animals"}}, "note": "Entries after “also recorded” stand apart in the source; their conditions may differ."}
{"smiles": "Nc1cccc2c(=O)[nH][nH]c(=O)c12.[Na]", "note": "[sodium salt of 5-amino-2,3-dihydrophthalazine-1,4-dione]", "values": [{"measurement": "Titers of hemagglutinins", "setting": "[1]; [5]", "result": "59 ± 58"}, {"measurement": "Titers of hemagglutinins", "setting": "[1]; [6]", "result": "50 ± 48"}, {"measurement": "Titers of hemagglutinins", "setting": "[1]; [7]", "result": "266 ± 200"}, {"measurement": "Titers of hemagglutinins", "setting": "[1]; [8]", "result": "112 ± 106"}, {"measurement": "Titers of hemagglutinins", "setting": "[1]; [9]", "result": "168 ± 109"}, {"measurement": "Titers of hemagglutinins", "setting": "[1]; [10]", "result": "15 ± 13"}, {"measurement": "Titers of hemagglutinins", "setting": "[1]; [11]", "result": "154 ± 57"}, {"measurement": "Titers of hemagglutinins", "setting": "[1]; [12]", "result": "256 ± 0"}, {"measurement": "Titers of hemagglutinins", "setting": "[1]; [13]", "result": "24 ± 20"}, {"measurement": "Titers of hemagglutinins", "setting": "[1]; 2 μg, Strain CBA mice, 7 days", "result": "28 ± 26"}, {"measurement": "Titers of hemagglutinins", "setting": "[1]; 2 μg, Strain CBA mice, 14 days", "result": "154 ± 97"}, {"measurement": "Titers of hemagglutinins", "setting": "[1]; 2 μg, Strain CBA mice, 21 days", "result": "10 ± 8"}, {"measurement": "Titers of hemagglutinins", "setting": "[1]; [14]", "result": "91 ± 64"}, {"measurement": "Titers of hemagglutinins", "setting": "[1]; [15]", "result": "512 ± 0"}, {"measurement": "Titers of hemagglutinins", "setting": "[1]; [16]", "result": "560 ± 160"}, {"measurement": "Titers of hemagglutinins", "setting": "[1]; 20 μg, Strain CBA mice, 7 days", "result": "96 ± 37"}, {"measurement": "Titers of hemagglutinins", "setting": "[1]; [17]", "result": "256 ± 0"}, {"measurement": "Titers of hemagglutinins", "setting": "[1]; [18]", "result": "83 ± 70"}, {"measurement": "Titers of hemagglutinins", "setting": "[1]; [19]", "result": "512 ± 0"}, {"measurement": "Titers of hemagglutinins", "setting": "[1]; [20]", "result": "44 ± 42"}, {"measurement": "Titers of hemagglutinins", "setting": "[1]; [21]", "result": "160 ± 138"}, {"measurement": "Titers of hemagglutinins", "setting": "[1]; [22]", "result": "35 ± 33"}, {"measurement": "Titers of hemagglutinins", "setting": "[1]; [23]", "result": "75 ± 59"}, {"measurement": "Titers of hemagglutinins", "setting": "[1]; [24]", "result": "46 ± 32"}, {"measurement": "titers of hemagglutinins (trend)", "setting": "[1]; Strain C57BL6 animals of low reaction, 21st day, 0.2 or 20 μg per mouse", "result": "tendency to increase"}, {"measurement": "pain", "setting": "[2]; 2nd day of treatment, with omeprazol and antacids", "result": "Significant weakening"}, {"measurement": "pain", "setting": "[2]; 7th day", "result": "completely disappeared"}, {"measurement": "decrease in ulcer dimensions", "setting": "[2]; by the 7th day", "result": "⅓"}, {"measurement": "decrease in dimensions of ulcerous defect", "setting": "[2]; by the 15th day of treatment", "result": "2/3"}, {"measurement": "scarring of ulcer", "setting": "[2]; by the 21st day, total of 1,000 mg", "result": "completely scarred"}, {"measurement": "Titers of hemagglutinins", "setting": "[3]; [5]", "result": 0}, {"measurement": "Titers of hemagglutinins", "setting": "[3]; [6]", "result": "2 ± 0"}, {"measurement": "Titers of hemagglutinins", "setting": "[3]; [7]", "result": "35 ± 10"}, {"measurement": "Titers of hemagglutinins", "setting": "[3]; [8]", "result": 0}, {"measurement": "Titers of hemagglutinins", "setting": "[3]; [9]", "result": "9 ± 7"}, {"measurement": "Titers of hemagglutinins", "setting": "[3]; [10]", "result": 0}, {"measurement": "Titers of hemagglutinins", "setting": "[3]; [11]", "result": "13 ± 11"}, {"measurement": "Titers of hemagglutinins", "setting": "[3]; [12]", "result": "54 ± 50"}, {"measurement": "Titers of hemagglutinins", "setting": "[3]; [13]", "result": "226 ± 201"}, {"measurement": "Titers of hemagglutinins", "setting": "[3]; 2 μg, Strain CBA mice, 7 days", "result": "10 ± 8"}, {"measurement": "Titers of hemagglutinins", "setting": "[3]; 2 μg, Strain CBA mice, 14 days", "result": "173 ± 110"}, {"measurement": "Titers of hemagglutinins", "setting": "[3]; 2 μg, Strain CBA mice, 21 days", "result": "22 ± 10"}, {"measurement": "Titers of hemagglutinins", "setting": "[3]; [14]", "result": "26 ± 19"}, {"measurement": "Titers of hemagglutinins", "setting": "[3]; [15]", "result": "256 ± 0"}, {"measurement": "Titers of hemagglutinins", "setting": "[3]; [16]", "result": "304 ± 105"}, {"measurement": "Titers of hemagglutinins", "setting": "[3]; 20 μg, Strain CBA mice, 7 days", "result": 0}, {"measurement": "Titers of hemagglutinins", "setting": "[3]; [17]", "result": "236 ± 0"}, {"measurement": "Titers of hemagglutinins", "setting": "[3]; [18]", "result": "23 ± 10"}, {"measurement": "Titers of hemagglutinins", "setting": "[3]; [19]", "result": 0}, {"measurement": "Titers of hemagglutinins", "setting": "[3]; [20]", "result": "96 ± 42"}, {"measurement": "Titers of hemagglutinins", "setting": "[3]; [21]", "result": "120 ± 95"}, {"measurement": "Titers of hemagglutinins", "setting": "[3]; [22]", "result": "28 ± 13"}, {"measurement": "Titers of hemagglutinins", "setting": "[3]; [23]", "result": "158 ± 120"}, {"measurement": "Titers of hemagglutinins", "setting": "[3]; [24]", "result": "47 ± 30"}, {"measurement": "effect on productive phase of immune response", "setting": "[3]; all doses, Strain CBA mice of high reaction", "result": "suppressive effect"}, {"measurement": "level (titers) of hemagglutinins", "setting": "[3]; low reaction Strain C57BL6 mice, 21st day", "result": "tendency to increase; also recorded: significant increase"}, {"measurement": "production of antibodies", "setting": "[3]; wide range of doses, Strain CBA mice, 7th and 14th days after immunization", "result": "inhibition"}, {"measurement": "expression of anaphylactic activity", "setting": "[4]; demonstrated only for high doses", "result": "very weak"}, {"measurement": "Number of animals with expression of anaphylactic shock −", "setting": "[4]; sensitization 1.0 μg, shocking injection 100 μg, 10 animals", "result": 10}, {"measurement": "Weigl's index", "setting": "[4]; sensitization 10 μg, shocking injection 100 μg", "result": 0.2}, {"measurement": "Number of animals with expression of anaphylactic shock +", "setting": "[4]; [25]", "result": 2}, {"measurement": "Number of animals with expression of anaphylactic shock −", "setting": "[4]; [25]", "result": 7}, {"measurement": "Weigl's index", "setting": "[4]; sensitization 100 μg, shocking injection 100 μg", "result": 0.3}, {"measurement": "Number of animals with expression of anaphylactic shock +", "setting": "[4]; [26]", "result": 1}, {"measurement": "Number of animals with expression of anaphylactic shock ++", "setting": "[4]; [26]", "result": 1}, {"measurement": "Number of animals with expression of anaphylactic shock −", "setting": "[4]; [26]", "result": 5}]}
